Like-named read-outs stand apart in the source and are kept apart here.
Experiments:
[1] = target: T1, human full-length glucocorticoid receptor (Homo sapiens, UniProt P04150); test: Glucocorticoid Receptor Binding Assay (I), fluorescence polarization, Fluormone GS Red; design: purified human recombinant full-length glucocorticoid receptor; purchased Invitrogen Part #2893
T1 sequence (P04150 1-777): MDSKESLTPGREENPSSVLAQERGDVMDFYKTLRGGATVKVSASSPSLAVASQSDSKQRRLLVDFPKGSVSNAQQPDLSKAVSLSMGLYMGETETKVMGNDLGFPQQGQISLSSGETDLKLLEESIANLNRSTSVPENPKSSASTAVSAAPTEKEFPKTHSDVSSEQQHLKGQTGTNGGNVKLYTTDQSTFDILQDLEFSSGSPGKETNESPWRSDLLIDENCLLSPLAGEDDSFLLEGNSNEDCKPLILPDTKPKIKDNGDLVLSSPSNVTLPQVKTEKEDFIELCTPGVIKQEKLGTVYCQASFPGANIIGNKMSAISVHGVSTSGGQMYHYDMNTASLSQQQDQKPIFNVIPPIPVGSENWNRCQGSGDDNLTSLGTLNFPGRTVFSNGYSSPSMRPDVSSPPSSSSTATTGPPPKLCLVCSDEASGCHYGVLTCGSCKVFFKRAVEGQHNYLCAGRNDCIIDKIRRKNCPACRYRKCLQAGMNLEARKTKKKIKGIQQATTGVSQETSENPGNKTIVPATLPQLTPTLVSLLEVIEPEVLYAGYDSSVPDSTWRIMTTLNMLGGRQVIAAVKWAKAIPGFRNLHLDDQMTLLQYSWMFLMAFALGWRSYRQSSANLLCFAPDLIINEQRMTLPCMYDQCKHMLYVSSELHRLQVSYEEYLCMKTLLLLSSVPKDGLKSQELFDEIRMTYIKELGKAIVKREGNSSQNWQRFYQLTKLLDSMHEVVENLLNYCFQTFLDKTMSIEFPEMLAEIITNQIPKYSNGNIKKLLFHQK
Description: Glucocorticoid Receptor Binding Assay (I)^a
Briefly, purified human recombinant full-length glucocorticoid receptor (2 nM) was mixed with fluorescently labeled glucocorticoid (1 nM Fluormone GS Red) in the presence or absence of test compound. After two hour incubation at room temperature in the dark, the fluorescence polarization (FP) of the samples was measured. […] Test compounds were analyzed in the concentration range from 8.5E-05 μM to 5 μM.

[2] = tested on: AP-1 induced transcriptional activity; test: Cellular Transrepressional Assay (AP-1 luciferase reporter, PMA-activated A549 cells); format: cell-based; conditions: Homo sapiens, A549, 7 h, maximum inhibition, Cellular Transrepression Assay; read-out: AP-1 Max % inh (Cellular Transrepression Assay)
Method in brief: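 Compounds tested from 0.1 nM to 40 μM during a 7 h PMA (10 ng/ml) stimulation of A549 cells stably transfected with 7× AP-1 sites driving luciferase. Repression expressed as % reduction of PMA-induced luminescence; EC50 by curve fitting.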

[3] = GR Binding Assay (I), read-out: GR (Ki, nM) (GR Binding Assay (I))

`CC(C)CCN(C)C(=O)c1ccc(-c2ccc3c(n2)Oc2ccccc2[C@@H]3C(C)(C)C(=O)Nc2nncs2)cc1` [Example 270] gave a Ki [1, 3] of 20.9 nM and an Emax [2] of 28%.
Work on `CC1CN(C(=O)c2ccc(-c3ccc4c(n3)Oc3ccccc3[C@@H]4C(C)(C)C(=O)Nc3nncs3)cc2)CC(C)O1` (stereo partly drawn) [Example 273] yielded a Ki [1, 3] of 19.9 nM and an Emax [2] of 21%.
`CC(C)(C(=O)Nc1nncs1)[C@H]1c2ccccc2Oc2nc(-c3ccc(C(=O)N4CCN(CCO)CC4)cc3)ccc21` [Example 275] was tested, and the Ki [1, 3] was 2.6 nM and the Emax [2] was 26%.
`CN(CCc1ccccc1)C(=O)c1ccc(-c2ccc3c(n2)Oc2ccccc2[C@@H]3C(C)(C)C(=O)Nc2nncs2)cc1` [Example 276] showed a Ki [1, 3] of 4.05 nM and an Emax [2] of 27.2%.
For `CC(=O)N1CCCN(C(=O)c2ccc(-c3ccc4c(n3)Oc3ccccc3[C@@H]4C(C)(C)C(=O)Nc3nncs3)cc2)CC1` [Example 277], the Ki [1, 3] was 81.3 nM and the Emax [2] was 24.5%.
For `CC(C)(C(=O)Nc1nncs1)[C@H]1c2ccccc2Oc2nc(-c3ccc(C(=O)N4CCc5ccccc5C4)cc3)ccc21` [Example 280], the Ki [1, 3] was 10.8 nM and the Emax [2] was 33.5%.
With `CCS(=O)(=O)N1CCN(C(=O)c2ccc(-c3ccc4c(n3)Oc3ccccc3[C@@H]4C(C)(C)C(=O)Nc3nncs3)cc2)CC1` [Example 283] the Ki [1, 3] was 9.21 nM and the Emax [2] was 24.6%.
Compound `COC[C@H]1CCCN1C(=O)c1ccc(-c2ccc3c(n2)Oc2ccccc2[C@@H]3C(C)(C)C(=O)Nc2nncs2)cc1` [Example 285] has a Ki [1, 3] of 5.84 nM and an Emax [2] of 45.3%.
With `CN(CCS(C)(=O)=O)C(=O)c1ccc(-c2ccc3c(n2)Oc2ccccc2[C@@H]3C(C)(C)C(=O)Nc2nncs2)cc1` [Example 286] the Ki [1, 3] was 12.2 nM and the Emax [2] was 49.8%.
Work on `CC(C)(C(=O)Nc1nncs1)[C@H]1c2ccccc2Oc2nc(-c3ccc(C(=O)N4CCC(S(C)(=O)=O)C4)cc3)ccc21` (stereo partly drawn) [Example 288] yielded a Ki [1, 3] of 13.8 nM and an Emax [2] of 35.5%.
In the case of `COC1CN(C(=O)c2ccc(-c3ccc4c(n3)Oc3ccccc3[C@@H]4C(C)(C)C(=O)Nc3nncs3)cc2)C1` [Example 289], the Ki [1, 3] is reported as 20 nM and the Emax [2] is reported as 24.3%.
With `CC(C)(C(=O)Nc1nncs1)[C@H]1c2ccccc2Oc2nc(-c3ccc(C(=O)N4CCC(C(F)(F)F)CC4)cc3)ccc21` [Example 290] the Ki [1, 3] was 20.4 nM and the Emax [2] was 28.8%.
`COC(=O)[C@H]1CCCCN1C(=O)c1ccc(-c2ccc3c(n2)Oc2ccccc2[C@@H]3C(C)(C)C(=O)Nc2nncs2)cc1` [Example 291] was tested, and the Ki [1, 3] was 44 nM and the Emax [2] was 27%.
`COC(=O)CN(C)C(=O)c1ccc(-c2ccc3c(n2)Oc2ccccc2[C@@H]3C(C)(C)C(=O)Nc2nncs2)cc1` [Example 293] gave a Ki [1, 3] of 10.4 nM and an Emax [2] of 25.4%.
With `CN(CCO)C(=O)c1ccc(-c2ccc3c(n2)Oc2ccccc2[C@@H]3C(C)(C)C(=O)Nc2nncs2)cc1` [Example 294] the Ki [1, 3] was 29.3 nM and the Emax [2] was 59.4%.
Compound `COCCN(C)C(=O)c1ccc(-c2ccc3c(n2)Oc2ccccc2[C@@H]3C(C)(C)C(=O)Nc2nncs2)cc1` [Example 295] has a Ki [1, 3] of 38.7 nM and an Emax [2] of 24.4%.
Work on `CC(C)(C(=O)Nc1nncs1)[C@H]1c2ccccc2Oc2nc(-c3ccc(C(=O)N4CCCN(Cc5ccccc5)CC4)cc3)ccc21` [Example 298] yielded a Ki [1, 3] of 242 nM and an Emax [2] of 25.4%.
In the case of `CN(Cc1ccncc1)C(=O)c1ccc(-c2ccc3c(n2)Oc2ccccc2[C@@H]3C(C)(C)C(=O)Nc2nncs2)cc1` [Example 301], the Ki [1, 3] is reported as 20.3 nM and the Emax [2] is reported as 28.6%.
Compound `CC(C)(C(=O)Nc1nncs1)[C@H]1c2ccccc2Oc2nc(-c3ccc(C(=O)N4CCCN(CCO)CC4)cc3)ccc21` [Example 303] has a Ki [1, 3] of 278 nM and an Emax [2] of 28.6%.
Compound `CC1CC(C)CN(C(=O)c2ccc(-c3ccc4c(n3)Oc3ccccc3[C@@H]4C(C)(C)C(=O)Nc3nncs3)cc2)C1` (stereo partly drawn) [Example 305] has a Ki [1, 3] of 24.7 nM and an Emax [2] of 38.3%.
Work on `CC(=O)N[C@@H]1CCN(C(=O)c2ccc(-c3ccc4c(n3)Oc3ccccc3[C@@H]4C(C)(C)C(=O)Nc3nncs3)cc2)C1` [Example 306] yielded a Ki [1, 3] of 9.85 nM and an Emax [2] of 43.5%.
`CN(C)[C@@H]1CCN(C(=O)c2ccc(-c3ccc4c(n3)Oc3ccccc3[C@@H]4C(C)(C)C(=O)Nc3nncs3)cc2)C1` [Example 307] was tested, and the Ki [1, 3] was 67.5 nM and the Emax [2] was 37.1%.
`CC(C)(C(=O)Nc1nncs1)[C@H]1c2ccccc2Oc2nc(-c3ccc(C(=O)NCc4ccccc4)cc3)ccc21` [Example 349] was tested, and the Ki [1, 3] was 5.88 nM and the Emax [2] was 31.7%.
Compound `CC(C)(C(=O)Nc1nncs1)[C@H]1c2ccccc2Oc2nc(-c3ccc(C(=O)NCCc4ccccc4)cc3)ccc21` [Example 354] has a Ki [1, 3] of 20.1 nM and an Emax [2] of 28.9%.
`CC(C)(C(=O)Nc1nncs1)[C@H]1c2ccccc2Oc2nc(N3CCN(C(=O)N4CCCC4)CC3)ccc21` [Example 400] showed a Ki [1, 3] of 37.3 nM.
For `CN(C)C(=O)CNC(=O)Nc1ccc2c(n1)Oc1ccccc1[C@@H]2C(C)(C)C(=O)Nc1nncs1` [Example 402], the Ki [1, 3] was 699 nM.
With `CC(C)(C(=O)Nc1nncs1)[C@H]1c2ccccc2Oc2nc(N3CCC(C(=O)N4CCCC4)CC3)ccc21` [Example 403] the Ki [1, 3] was 61.2 nM.
`Cc1ccn(-c2ccc3c(n2)Oc2ccccc2[C@@H]3C(C)(C)C(=O)Nc2nncs2)c(=O)c1` [Example 405] showed a Ki [1, 3] of 424 nM.
`CC(C)(C)OC(=O)N1CC=C(c2ccc3c(n2)Oc2ccccc2[C@@H]3C(C)(C)C(=O)Nc2nncs2)CC1` [Example 406] gave a Ki [1, 3] of 176 nM.
`CC(C)(C(=O)Nc1nncs1)[C@H]1c2ccccc2Oc2nc(C3=CCNCC3)ccc21` [Example 407] showed a Ki [1, 3] of 958 nM.
For `CC(C)C(=O)N1CC=C(c2ccc3c(n2)Oc2ccccc2[C@@H]3C(C)(C)C(=O)Nc2nncs2)CC1` [Example 409], the Ki [1, 3] was 78.2 nM.
Work on `CC(C)(C(=O)Nc1nnc(C(F)(F)F)s1)[C@H]1c2ccccc2Oc2nc(-c3ccc(C(=O)N4CCCC4)c(F)c3)ccc21` [Example 412] yielded a Ki [1, 3] of 22.3 nM.
`CC(C)(C(=O)NC1=NC(=O)CS1)[C@H]1c2ccccc2Oc2nc(-c3ccc(C(=O)N4CCCC4)c(F)c3)ccc21` [Example 413] was tested, and the Ki [1, 3] was 37.7 nM.
In the case of `CC(C)(C(=O)Nc1cnns1)[C@H]1c2ccccc2Oc2nc(-c3ccc(C(=O)N4CCCC4)c(F)c3)ccc21` [Example 414], the Ki [1, 3] is reported as 589 nM.
With `CC(=O)NC(C)(C)c1ccc(-c2ccc3c(n2)Oc2ccccc2[C@@H]3C(C)(C)C(=O)Nc2nncs2)cc1` [Example 415] the Ki [1, 3] was 64.1 nM.
`CC(C)(N)c1ccc(-c2ccc3c(n2)Oc2ccccc2[C@@H]3C(C)(C)C(=O)Nc2nncs2)cc1` [Example 416] was tested, and the Ki [1, 3] was 94.5 nM.
Compound `CCCCCCc1ccc2c(n1)Oc1ccccc1[C@@H]2C(C)(C)C(=O)Nc1nncs1` [Example 437] has a Ki [1, 3] of 11.1 nM.
For `CN(C)C(=O)c1ccc(-c2ccc3c(n2)Oc2ccccc2C3C(C)(C)C(=O)Nc2ccccn2)cc1` (stereo not drawn) [Example 438], the Ki [1, 3] was 53.1 nM.
`CN(C)C(=O)c1ccc(-c2ccc3c(n2)Oc2ccccc2C3C(C)(C)C(=O)Nc2ncn[nH]2)cc1` (stereo not drawn) [Example 439] was tested, and the Ki [1, 3] was 65.8 nM.
Work on `CN(C)C(=O)c1ccc(-c2ccc3c(n2)Oc2ccccc2C3C(C)(C)C(=O)Nc2ncc[nH]2)cc1` (stereo not drawn) [Example 440] yielded a Ki [1, 3] of 21 nM.
`CC(C)(C(=O)Nc1nncs1)[C@H]1c2ccccc2Oc2nc(-c3ccc4c(c3)CCC4=O)ccc21` [Example 451] gave a Ki [1, 3] of 5.57 nM.
`CN(C)C(=O)n1cc(-c2ccc3c(n2)Oc2ccccc2[C@@H]3C(C)(C)C(=O)Nc2nncs2)cn1` [Example 453] was tested, and the Ki [1, 3] was 17.6 nM.
For `CN(C)C(=O)c1ccc(-c2ccc3c(n2)Oc2ccccc2[C@@H]3C(C)(C)C(=O)Nc2nncs2)s1` [Example 462], the Ki [1, 3] was 3.78 nM.
With `Cc1nnc(NC(=O)C(C)(C)[C@H]2c3ccccc3Oc3nc(-c4cc(F)c(C(=O)N(C)C)c(F)c4)ccc32)s1` [Example 469] the Ki [1, 3] was 49.8 nM.
For `Cc1nnc(NC(=O)C(C)(C)[C@H]2c3ccccc3Oc3nc(-c4ccc(C(=O)N5CCC(=O)CC5)cc4)ccc32)s1` [Example 475], the Ki [1] was 18.3 nM.
`Cc1nnc(NC(=O)C(C)(C)[C@H]2c3ccccc3Oc3nc(-c4ccc(OC(C)C)c(Cl)c4)ccc32)s1` [Example 476] gave a Ki [1, 3] of 16.4 nM.
Work on `CN(C)C(=O)c1ccc(-c2ccc3c(n2)Oc2ccccc2C3C2(C(=O)Nc3nncs3)CCOCC2)cc1` (stereo not drawn) [Example 483] yielded a Ki [1, 3] of 426 nM.
Compound `CN(C)C(=O)c1ccc(-c2ccc3c(n2)Oc2ccccc2C3C2(C(=O)Nc3nncs3)CC2)cc1` (stereo not drawn) [Example 489] has a Ki [1, 3] of 144 nM.
Work on `CN(C)C(=O)c1ccc(-c2ccc3c(c2)Oc2ncccc2C3C(C)(C)C(=O)Nc2nncs2)cc1` (stereo not drawn) [Example 490] yielded a Ki [1, 3] of 14.8 nM.
`CN(C)C(=O)c1ccc(-c2ccc3c(n2)Oc2ccccc2C3CC(=O)Nc2nncs2)cc1` (stereo not drawn) [Example 491] was tested, and the Ki [1, 3] was > 1150 nM.
With `Cc1nnc(NC(=O)C(C)(C)C2c3ccccc3Oc3cc(-c4ccc(C(=O)N5CCOCC5)cc4)ncc32)s1` (stereo not drawn) [Example 493] the Ki [1, 3] was 109 nM.

From US8034940B2, “Modulators of glucocorticoid receptor, AP-1, and/or NF-κB activity and use thereof” (Bristol-Myers Squibb Company, priority 2006, dated 2011)
